One block for each compound: values may come before it.
Experiments:
DDB1 = DDB1 (Homo sapiens, UniProt Q16531); experiment: E-ASMS affinity selection; format: binding
WDR91 = target: T1, WDR91 (Homo sapiens, UniProt A4D1P6); format: binding
T1 sequence (A4D1P6 1-747): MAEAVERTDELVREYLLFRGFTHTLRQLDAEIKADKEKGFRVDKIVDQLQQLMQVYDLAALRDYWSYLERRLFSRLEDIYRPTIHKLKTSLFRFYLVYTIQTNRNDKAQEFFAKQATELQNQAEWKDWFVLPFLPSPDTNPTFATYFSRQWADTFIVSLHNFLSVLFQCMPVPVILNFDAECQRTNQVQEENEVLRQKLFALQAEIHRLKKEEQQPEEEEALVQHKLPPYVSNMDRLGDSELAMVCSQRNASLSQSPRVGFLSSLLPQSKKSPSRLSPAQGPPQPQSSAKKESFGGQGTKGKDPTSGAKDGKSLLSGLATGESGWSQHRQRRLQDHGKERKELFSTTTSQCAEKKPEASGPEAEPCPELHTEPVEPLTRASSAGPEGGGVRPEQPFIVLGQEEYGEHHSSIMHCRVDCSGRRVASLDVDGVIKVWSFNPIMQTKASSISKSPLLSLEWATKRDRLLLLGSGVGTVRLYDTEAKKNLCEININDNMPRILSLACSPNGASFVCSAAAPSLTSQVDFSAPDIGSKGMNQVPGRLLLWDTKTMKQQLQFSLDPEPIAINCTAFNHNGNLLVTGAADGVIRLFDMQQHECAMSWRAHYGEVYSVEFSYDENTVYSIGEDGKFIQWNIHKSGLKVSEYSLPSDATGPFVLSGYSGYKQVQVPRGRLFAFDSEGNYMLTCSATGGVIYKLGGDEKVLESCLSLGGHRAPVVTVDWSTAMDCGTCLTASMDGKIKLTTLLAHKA

[1] = Chiral stability assessment via hydrogen-deuterium; format: physicochemical; conditions: binding buffer with D2O, 4 °C, 8 h; indicates potential spontaneous racemization
WDR55 [2] = target: T2, WDR55 (Homo sapiens, UniProt Q9H6Y2); experiment: biochemical; format: binding
T2 sequence (Q9H6Y2 1-383): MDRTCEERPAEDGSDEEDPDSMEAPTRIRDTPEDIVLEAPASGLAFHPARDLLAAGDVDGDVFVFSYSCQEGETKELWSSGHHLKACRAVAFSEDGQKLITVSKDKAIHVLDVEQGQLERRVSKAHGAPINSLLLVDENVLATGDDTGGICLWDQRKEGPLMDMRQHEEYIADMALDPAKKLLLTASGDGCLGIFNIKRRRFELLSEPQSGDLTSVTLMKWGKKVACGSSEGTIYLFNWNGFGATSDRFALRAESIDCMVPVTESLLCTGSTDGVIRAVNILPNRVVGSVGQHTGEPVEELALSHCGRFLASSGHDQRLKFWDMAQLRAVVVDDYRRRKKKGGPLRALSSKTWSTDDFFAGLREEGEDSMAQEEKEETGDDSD

WDR55 [3] = target: T2, WDR55; format: binding
PRMT5 = PRMT5 (Homo sapiens, UniProt O14744); experiment: E-ASMS affinity selection; format: binding
Chain of PRMT5 (O14744 whole entry): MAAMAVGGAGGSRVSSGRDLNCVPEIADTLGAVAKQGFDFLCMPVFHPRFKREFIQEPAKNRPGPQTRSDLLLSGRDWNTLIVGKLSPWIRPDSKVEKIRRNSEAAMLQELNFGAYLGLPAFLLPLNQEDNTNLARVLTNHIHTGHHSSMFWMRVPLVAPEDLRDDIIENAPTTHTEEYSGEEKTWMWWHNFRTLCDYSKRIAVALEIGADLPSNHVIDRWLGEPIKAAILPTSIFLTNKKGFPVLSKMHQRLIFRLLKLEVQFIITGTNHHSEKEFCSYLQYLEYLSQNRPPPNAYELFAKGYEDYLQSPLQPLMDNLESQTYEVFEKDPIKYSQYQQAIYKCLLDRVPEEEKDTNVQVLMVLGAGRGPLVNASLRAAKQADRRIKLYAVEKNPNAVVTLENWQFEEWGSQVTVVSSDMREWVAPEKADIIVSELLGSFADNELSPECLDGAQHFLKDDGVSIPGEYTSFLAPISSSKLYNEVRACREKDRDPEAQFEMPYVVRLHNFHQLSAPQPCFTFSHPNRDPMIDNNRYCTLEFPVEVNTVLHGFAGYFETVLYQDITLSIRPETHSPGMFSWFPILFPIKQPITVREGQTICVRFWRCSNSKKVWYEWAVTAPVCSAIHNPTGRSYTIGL
Chain of PRMT5 (Q9BQA1 whole entry partner): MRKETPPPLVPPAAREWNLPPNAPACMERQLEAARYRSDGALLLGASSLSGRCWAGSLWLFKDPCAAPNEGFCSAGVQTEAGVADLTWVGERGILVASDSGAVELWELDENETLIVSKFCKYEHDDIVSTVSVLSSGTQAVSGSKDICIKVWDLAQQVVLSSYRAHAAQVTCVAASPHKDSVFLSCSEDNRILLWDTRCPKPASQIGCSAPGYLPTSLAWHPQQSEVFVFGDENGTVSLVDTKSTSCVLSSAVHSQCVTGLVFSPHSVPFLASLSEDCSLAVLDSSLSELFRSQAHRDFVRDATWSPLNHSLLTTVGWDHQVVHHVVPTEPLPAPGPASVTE

USP21 = target: T3, USP21 (Homo sapiens, UniProt Q9UK80); experiment: E-ASMS affinity selection; format: binding; conditions: USP21 beads, negative control protein
T3 sequence (Q9UK80 1-565): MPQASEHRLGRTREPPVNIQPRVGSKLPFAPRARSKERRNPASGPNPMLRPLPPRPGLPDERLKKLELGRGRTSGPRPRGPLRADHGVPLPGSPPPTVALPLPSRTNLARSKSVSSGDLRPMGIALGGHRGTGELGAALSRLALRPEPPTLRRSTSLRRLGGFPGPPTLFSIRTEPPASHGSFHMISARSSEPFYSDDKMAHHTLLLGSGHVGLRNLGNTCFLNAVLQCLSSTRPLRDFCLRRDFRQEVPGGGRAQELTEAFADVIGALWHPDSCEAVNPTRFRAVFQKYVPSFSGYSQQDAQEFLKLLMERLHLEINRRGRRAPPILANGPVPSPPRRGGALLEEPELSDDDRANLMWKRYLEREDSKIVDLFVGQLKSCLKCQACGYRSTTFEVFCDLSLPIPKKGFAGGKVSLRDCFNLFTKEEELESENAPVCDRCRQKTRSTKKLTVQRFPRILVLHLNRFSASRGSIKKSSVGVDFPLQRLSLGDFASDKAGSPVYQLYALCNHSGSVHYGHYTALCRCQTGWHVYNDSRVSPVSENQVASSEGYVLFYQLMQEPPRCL

DCAF1 = DCAF1 (Homo sapiens, UniProt Q9Y4B6); experiment: E-ASMS affinity selection; format: binding; conditions: DCAF1 beads, negative control protein
Chain of DCAF1 (Q9Y4B6 whole entry): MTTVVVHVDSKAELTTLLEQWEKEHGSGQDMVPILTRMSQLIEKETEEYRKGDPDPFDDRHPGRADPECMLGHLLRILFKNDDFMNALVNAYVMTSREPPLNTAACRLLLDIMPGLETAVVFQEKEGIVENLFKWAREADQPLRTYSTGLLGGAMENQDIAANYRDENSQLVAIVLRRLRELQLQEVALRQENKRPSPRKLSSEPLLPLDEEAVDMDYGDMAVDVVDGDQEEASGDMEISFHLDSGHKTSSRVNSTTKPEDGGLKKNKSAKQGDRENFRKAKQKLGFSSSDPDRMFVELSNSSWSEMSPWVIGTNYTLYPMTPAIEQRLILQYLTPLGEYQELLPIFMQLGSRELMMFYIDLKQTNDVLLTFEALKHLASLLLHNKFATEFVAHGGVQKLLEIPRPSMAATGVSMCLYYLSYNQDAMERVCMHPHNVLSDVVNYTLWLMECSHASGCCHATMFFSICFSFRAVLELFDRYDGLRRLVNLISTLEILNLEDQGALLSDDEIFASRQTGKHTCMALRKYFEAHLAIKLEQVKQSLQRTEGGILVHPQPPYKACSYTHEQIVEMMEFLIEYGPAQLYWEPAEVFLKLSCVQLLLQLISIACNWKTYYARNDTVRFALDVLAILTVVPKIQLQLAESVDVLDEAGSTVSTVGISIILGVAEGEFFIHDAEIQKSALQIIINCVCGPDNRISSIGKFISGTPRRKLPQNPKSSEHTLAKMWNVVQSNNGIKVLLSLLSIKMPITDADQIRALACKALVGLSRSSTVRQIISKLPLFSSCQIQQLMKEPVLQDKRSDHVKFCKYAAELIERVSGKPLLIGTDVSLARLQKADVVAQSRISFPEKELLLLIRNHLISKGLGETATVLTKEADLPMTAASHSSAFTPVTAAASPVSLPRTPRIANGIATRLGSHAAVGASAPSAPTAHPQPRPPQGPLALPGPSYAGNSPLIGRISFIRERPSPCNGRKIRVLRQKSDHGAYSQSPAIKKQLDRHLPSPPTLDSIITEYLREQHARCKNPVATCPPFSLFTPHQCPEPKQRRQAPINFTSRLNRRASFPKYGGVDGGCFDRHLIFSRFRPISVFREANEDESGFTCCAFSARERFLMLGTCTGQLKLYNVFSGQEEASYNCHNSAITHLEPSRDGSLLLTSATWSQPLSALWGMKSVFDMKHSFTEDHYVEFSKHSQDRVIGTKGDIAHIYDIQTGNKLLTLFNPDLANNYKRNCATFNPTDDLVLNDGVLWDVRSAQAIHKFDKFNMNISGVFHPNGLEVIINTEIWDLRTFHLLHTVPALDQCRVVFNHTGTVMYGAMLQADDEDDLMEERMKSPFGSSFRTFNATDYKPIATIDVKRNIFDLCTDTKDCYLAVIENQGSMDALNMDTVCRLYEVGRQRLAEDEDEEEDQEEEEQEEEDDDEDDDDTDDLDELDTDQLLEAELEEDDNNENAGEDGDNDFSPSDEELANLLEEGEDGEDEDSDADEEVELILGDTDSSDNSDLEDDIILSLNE

Chain of DDB1 (Q16531 whole entry): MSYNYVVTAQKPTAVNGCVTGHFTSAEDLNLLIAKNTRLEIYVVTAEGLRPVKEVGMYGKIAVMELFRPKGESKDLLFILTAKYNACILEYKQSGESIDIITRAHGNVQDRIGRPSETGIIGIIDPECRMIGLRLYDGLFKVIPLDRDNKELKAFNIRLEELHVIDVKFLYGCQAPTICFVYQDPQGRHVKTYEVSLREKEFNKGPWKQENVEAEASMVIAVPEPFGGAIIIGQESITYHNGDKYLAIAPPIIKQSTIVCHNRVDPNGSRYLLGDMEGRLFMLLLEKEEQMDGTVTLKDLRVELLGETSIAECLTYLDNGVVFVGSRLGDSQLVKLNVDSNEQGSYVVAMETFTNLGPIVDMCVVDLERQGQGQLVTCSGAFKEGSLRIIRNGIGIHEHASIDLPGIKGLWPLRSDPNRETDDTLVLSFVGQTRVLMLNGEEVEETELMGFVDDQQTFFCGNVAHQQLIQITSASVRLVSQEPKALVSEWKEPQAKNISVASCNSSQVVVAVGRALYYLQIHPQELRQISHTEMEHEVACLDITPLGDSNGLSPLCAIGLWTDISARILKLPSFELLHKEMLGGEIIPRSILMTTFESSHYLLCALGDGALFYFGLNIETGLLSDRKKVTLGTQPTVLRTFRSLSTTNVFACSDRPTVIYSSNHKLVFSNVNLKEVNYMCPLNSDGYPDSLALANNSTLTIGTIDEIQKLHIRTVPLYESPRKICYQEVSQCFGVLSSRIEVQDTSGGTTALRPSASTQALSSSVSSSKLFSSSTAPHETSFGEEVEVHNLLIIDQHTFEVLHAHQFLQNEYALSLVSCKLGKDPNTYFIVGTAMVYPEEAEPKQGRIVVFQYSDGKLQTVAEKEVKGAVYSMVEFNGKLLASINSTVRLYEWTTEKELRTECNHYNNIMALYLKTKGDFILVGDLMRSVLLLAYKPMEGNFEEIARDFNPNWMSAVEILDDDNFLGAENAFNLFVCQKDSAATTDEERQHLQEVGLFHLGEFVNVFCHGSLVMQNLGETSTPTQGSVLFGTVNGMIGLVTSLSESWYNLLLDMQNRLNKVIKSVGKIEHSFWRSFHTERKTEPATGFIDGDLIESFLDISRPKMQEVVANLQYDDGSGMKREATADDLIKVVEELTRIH

Compound: CN1C(=O)C(c2c(-c3ccc(Cl)cc3)[nH]c3c2c(=O)[nH]c(=O)n3C)c2ccccc21 (stereo not drawn) [XS381295]
Enantioselective binding (chiral chromatography of eluate) (WDR91; WDR91-bead eluate): did not show enantioselectivity
Enrichment in methanol eluate (E-ASMS) (WDR91; WDR91 beads vs other proteins screened in parallel): enriched
Deuterium incorporation (H/D exchange) [1]: showed deuterium incorporation

Compound: Nc1ncnc2c1ccn2[C@@H]1O[C@H]([C@H](O)c2ccccc2)[C@@H](O)[C@H]1O [(S)-LLY283]
Enantioselective enrichment (chiral chromatography of eluate) (PRMT5; PRMT5 eluate): Enantioselective enrichment

Compound: Nc1cccc2c1CN(C1CCC(=O)NC1=O)C2=O (stereo not drawn) [Lenalidomide, lenalidomide]
Enrichment in methanol eluate (E-ASMS) (PRMT5; PRMT5 beads, negative control protein): no significant enrichment
Enrichment in methanol eluate (E-ASMS) (USP21): no significant enrichment
Enrichment in methanol eluate (E-ASMS) (DCAF1): no significant enrichment

Further lines, with some results ahead:

Enrichment in methanol eluate (E-ASMS) (DDB1; DDB1 beads vs other proteins screened in parallel): specifically enriched
Compound: CCOc1cccc(C2CC(=O)Nc3c2c(C)nn3-c2ccc3nncn3n2)c1 (stereo not drawn) [XS381952]
Enantioselective enrichment (chiral chromatography of eluate) (DDB1; DDB1-bead eluate vs ratio of enantiomers in starting library): one of the two enantiomers was clearly enriched

Kd (WDR55 [2]): 11 µM
Enantioselective binding (chiral chromatography of eluate) (WDR55 [3]; WDR55-bead eluate): displayed enantioselectivity
Enrichment in methanol eluate (E-ASMS) (WDR55 [3]; WDR55 beads): enriched
Compound: CC1Cc2cc(-c3ccnc4ncnn34)ccc2O1 (stereo not drawn) [XS381774]
